Laboratory results from US8808702B2, “Sulfide, sulfoxide and sulfone chalcone analogues, derivatives thereof and therapeutic uses thereof” (Temple University-of the Commonwealth System of Higher …, priority 2006, dated 2014).
pIC50: −log10 of the molar value. Like-named read-outs stand apart in the source and are kept apart here.

Columns and labels:
[1] = system: K562 (chronic myelogenous leukaemia); experiment: Effect of compounds on tumor cell lines (assay of Latham et al.), K562; assay type: cell-based; conditions: K562 cells, read-out: K 562 potency (IC50)
Method: (§1) The effect of the compounds of the invention on tumor cells was determined by the assay described by Latham et al., Oncogene 12:827-837 (1996). Tumor cells K562 (chronic myelogenous leukaemia) or DU145 (prostate cancer) were plated in 12-well dishes at a cell density of 2.5×10^4 cells well. The plated cells were treated 24 hours later with a compound of the invention dissolved in DMSO at multiple concentrations ranging from 1 μM to 100 μM. The plates were examined 96 hours later under an inverted microscope, Olympus CK-2 using an 10× objective, and compound activity was noted by physical observation. When necessary, the total number of viable cells was determined by trypsinizing the wells and counting the number of viable cells, as determined by trypan blue exclusion, using a hemacytometer.
(§2) The representative compounds listed in Tables 1-5 are shown by way of illustration, and are not intended to limit the scope of the invention. The compounds are prepared and tested by methods based on those described above, except that the compound of Table 5 was dissolved in DMSO at multiple concentrations ranging from 0.1 μM to 100 μM

DU145 (prostate cancer) = experiment: Effect of compounds on tumor cell lines (assay of Latham et al.), DU145; assay type: cell-based; conditions: DU145 cells, read-out: DU 145 potency (IC50)
Method: as §1, §2

[2] = Table 1, examined 96 hours after treatment, 1 μM to 100 μM in DMSO
[3] = 96 hours after treatment, 1 μM to 100 μM

pIC50 [1, 3]	pIC50 (DU145 (prostate cancer); [3])	Structure (SMILES)	pIC50 [1, 2]	pIC50 (DU145 (prostate cancer); [2])
		COc1ccc(C(=O)C(=Cc2c(OC)cc(OC)cc2OC)Sc2ccc(F)cc2)cc1 [Example 54]	4.00 to 4.30	4.00 to 4.30
		O=C(C(=Cc1ccccc1OCc1ccccc1)Sc1ccc(F)cc1)c1ccc(Cl)cc1 [Example 55]	5.00 to 6.00	5.00 to 6.00
		COc1ccc(C(=O)C(=Cc2ccc(OC)c(O)c2)Sc2ccc(F)cc2)cc1 [Example 56]	5.00 to 6.00	4.60 to 5.00
		COc1ccc(C(=O)C(=Cc2ccc(Br)cc2)Sc2ccc(F)cc2)cc1 [Example 57]	< 4.00	< 4.00
		COc1ccc(C(=O)C(=Cc2ccc(Cl)cc2)Sc2ccc(F)cc2)cc1 [Example 58]	< 4.00	< 4.00
		COc1ccc(C=C(Sc2ccc(F)cc2)C(=O)c2ccc(OC)cc2)cc1 [Example 59]	5.00 to 6.00	4.30 to 4.60
		Cc1ccc(C=C(Sc2ccc(F)cc2)C(=O)c2ccc(Cl)cc2)s1 [Example 60]	4.30 to 4.60	4.30 to 4.60
		COc1ccc(SC(=Cc2ccc(Cl)cc2Cl)C(=O)c2ccc(Br)cc2)cc1 [Example 61]	5.00 to 6.00	5.00 to 6.00
		COc1ccc(SC(=Cc2ccccc2OCc2ccccc2)C(=O)c2ccc(Cl)cc2)cc1 [Example 62]	5.00 to 6.00	5.00 to 6.00
		COc1ccc(SC(=Cc2ccc(Br)cc2)C(=O)c2ccc(Br)cc2)cc1 [Example 63]	5.00 to 6.00	4.30 to 4.60
		COc1ccc(SC(=Cc2ccc(C)s2)C(=O)c2ccc(Cl)cc2)cc1 [Example 64]	4.00 to 4.30	4.00 to 4.30
		Cc1ccc(SC(=Cc2c(F)c(F)c(F)c(F)c2F)C(=O)c2ccc(Cl)cc2)cc1 [Example 65]	4.30 to 4.60	4.30 to 4.60
		Cc1ccc(SC(=Cc2c(O)cc(O)cc2O)C(=O)c2ccc(Br)cc2)cc1 [Example 67]	4.00 to 4.30	< 4.00
		Cc1ccc(SC(=Cc2c(O)cc(O)cc2O)C(=O)c2ccc(Cl)cc2)cc1 [Example 68]	< 4.00	< 4.00
		COc1cc(OC)c(C=C(Sc2ccc(C)cc2)C(=O)c2ccc(Cl)cc2)c(OC)c1 [Example 70]	4.30 to 4.60	< 4.00
		Cc1ccc(SC(=Cc2ccc(Cl)cc2Cl)C(=O)c2ccc(Cl)cc2)cc1 [Example 71]	4.30 to 4.60	4.60 to 5.00
		Cc1ccc(SC(=Cc2ccc(F)cc2F)C(=O)c2ccc(Br)cc2)cc1 [Example 73]	< 4.00	< 4.00
		Cc1ccc(SC(=Cc2cc([N+](=O)[O-])ccc2F)C(=O)c2ccc(Cl)cc2)cc1 [Example 74]	5.00 to 6.00	4.60 to 5.00
		COc1ccccc1C=C(Sc1ccc(C)cc1)C(=O)c1ccc(Cl)cc1 [Example 75]	4.60 to 5.00	4.30 to 4.60
		Cc1ccc(SC(=Cc2ccc[nH]2)C(=O)c2ccc(Cl)cc2)cc1 [Example 76]	4.60 to 5.00	4.60 to 5.00
		Cc1ccc(SC(=Cc2ccc(Cl)c(Cl)c2)C(=O)c2ccc(Br)cc2)cc1 [Example 77]	4.00 to 4.30	4.00 to 4.30

pIC50 [1, 3]	pIC50 (DU145 (prostate cancer); [3])	Structure (SMILES)	pIC50 [1, 2]	pIC50 (DU145 (prostate cancer); [2])
		Cc1ccc(SC(=Cc2cc(C)cc(C)c2)C(=O)c2ccc(Cl)cc2)cc1 [Example 78]	4.30 to 4.60	4.00 to 4.30
		COc1ccc(C=C(Sc2ccc(C)cc2)C(=O)c2ccc(Cl)cc2)cc1O [Example 79]	5.00 to 6.00	5.00 to 6.00
		Cc1ccc(SC(=Cc2c[nH]c3ccccc23)C(=O)c2ccc(Br)cc2)cc1 [Example 80]	4.60 to 5.00	4.60 to 5.00
		Cc1ccc(SC(=Cc2c[nH]c3ccccc23)C(=O)c2ccc(Cl)cc2)cc1 [Example 81]	5.00 to 6.00	4.60 to 5.00
		Cc1ccc(SC(=Cc2sccc2C)C(=O)c2ccc(Br)cc2)cc1 [Example 82]	4.00 to 4.30	< 4.00
		Cc1ccc(SC(=Cc2sccc2C)C(=O)c2ccc(Br)cc2)cc1 [Example 83]	4.00 to 4.30	4.00 to 4.30
		Cc1ccc(SC(=Cc2sccc2C)C(=O)c2ccc(Cl)cc2)cc1 [Example 84]	4.00 to 4.30	4.00 to 4.30
		Cc1ccc(SC(=Cc2cnc3ccccc3c2)C(=O)c2ccc(Cl)cc2)cc1 [Example 85]	< 4.00	< 4.00
		CC(=O)Oc1ccc(C=C(Sc2ccc(C)cc2)C(=O)c2ccc(Cl)cc2)cc1 [Example 86]	5.00 to 6.00	4.60 to 5.00
		CC(=O)c1ccc(C=C(Sc2ccc(C)cc2)C(=O)c2ccc(Br)cc2)cc1 [Example 87]	4.00 to 4.30	4.00 to 4.30
		Cc1ccc(SC(=Cc2ccc(Br)cc2)C(=O)c2ccc(Cl)cc2)cc1 [Example 88]	4.00 to 4.30	4.30 to 4.60
		Cc1ccc(SC(=Cc2ccc(Cl)cc2)C(=O)c2ccc(Br)cc2)cc1 [Example 90]	5.00 to 6.00	4.60 to 5.00
		Cc1ccc(SC(=Cc2ccc(Cl)cc2)C(=O)c2ccc(Cl)cc2)cc1 [Example 91]	5.00 to 6.00	4.30 to 4.60
		CCOc1ccc(C=C(Sc2ccc(C)cc2)C(=O)c2ccc(Cl)cc2)cc1OC [Example 93]	4.60 to 5.00	4.30 to 4.60
		Cc1ccc(SC(=Cc2ccc(F)cc2OC(F)(F)F)C(=O)c2ccc(Br)cc2)cc1 [Example 94]	4.30 to 4.60	4.30 to 4.60
		Cc1ccc(SC(=Cc2ccc(F)c(C)c2)C(=O)c2ccc(Br)cc2)cc1 [Example 95]	5.00 to 6.00	4.30 to 4.60
		Cc1ccc(SC(=Cc2ccc(O)c([N+](=O)[O-])c2)C(=O)c2ccc(Cl)cc2)cc1 [Example 96]	4.30 to 4.60	4.60 to 5.00
		CSc1ccc(C=C(Sc2ccc(C)cc2)C(=O)c2ccc(Br)cc2)cc1 [Example 97]	5.00 to 6.00	4.30 to 4.60
		COc1ccc(C=C(Sc2ccc(C)cc2)C(=O)c2ccc(Br)cc2)cc1 [Example 99]	4.60 to 5.00	4.00 to 4.30
		COc1ccc(C=C(Sc2ccc(C)cc2)C(=O)c2ccc(Cl)cc2)cc1 [Example 100]	5.00 to 6.00	5.00 to 6.00
		Cc1ccc(SC(=Cc2ccc(N(C)C)cc2)C(=O)c2ccc(Br)cc2)cc1 [Example 101]	4.00 to 4.30	< 4.00

pIC50 [1, 3]	pIC50 (DU145 (prostate cancer); [3])	Structure (SMILES)	pIC50 [1, 2]	pIC50 (DU145 (prostate cancer); [2])
		Cc1ccc(SC(=Cc2ccc(N(C)C)cc2)C(=O)c2ccc(Cl)cc2)cc1 [Example 102]	< 4.00	< 4.00
		Cc1ccc(SC(=Cc2ccc(Oc3ccccc3)cc2)C(=O)c2ccc(Br)cc2)cc1 [Example 103]	4.60 to 5.00	5.00 to 6.00
		Cc1ccc(SC(=Cc2ccc(Oc3ccccc3)cc2)C(=O)c2ccc(Cl)cc2)cc1 [Example 104]	4.60 to 5.00	4.60 to 5.00
		Cc1ccc(SC(=Cc2c[nH]c3ccc(Br)cc23)C(=O)c2ccc(Br)cc2)cc1 [Example 105]	4.60 to 5.00	5.00 to 6.00
		Cc1ccc(SC(=Cc2c[nH]c3ccc(Br)cc23)C(=O)c2ccc(Cl)cc2)cc1 [Example 106]	5.00 to 6.00	5.00 to 6.00
		Cc1ccc(SC(=Cc2c[nH]c3ccc(Cl)cc23)C(=O)c2ccc(Br)cc2)cc1 [Example 107]	5.00 to 6.00	5.00 to 6.00
		Cc1ccc(SC(=Cc2c[nH]c3ccc(Cl)cc23)C(=O)c2ccc(Cl)cc2)cc1 [Example 108]	5.00 to 6.00	5.00 to 6.00
		Cc1ccc(SC(=Cc2ccc(C)s2)C(=O)c2ccc(Br)cc2)cc1 [Example 109]	4.00 to 4.30	< 4.00
		Cc1ccc(SC(=Cc2ccc(-c3ccccc3)cc2)C(=O)c2ccc(Br)cc2)cc1 [Example 110]	4.30 to 4.60	4.00 to 4.30
		Cc1ccc(SC(=Cc2ccc(-c3ccccc3)cc2)C(=O)c2ccc(Cl)cc2)cc1 [Example 111]	4.30 to 4.60	4.00 to 4.30
		O=C(O)c1ccc(C(=O)C(=Cc2ccc(F)c([N+](=O)[O-])c2)Sc2c(F)c(F)c(F)c(F)c2F)cc1 [Example 112]	≥ 6.00	5.00 to 6.00
		Cc1ccc(SC(=Cc2ccc(F)c([N+](=O)[O-])c2)C(=O)c2ccc(Br)cc2)cc1 [Example 113]	5.00 to 6.00	5.00 to 6.00
5.00 to 6.00	5.00 to 6.00	O=C(C(=Cc1cccc(Cl)c1Cl)SCc1ccc(Cl)cc1Cl)c1ccc(Cl)cc1 [Example 114]		
< 4.00	4.30 to 4.60	O=C(C(=Cc1c(O)cc(O)cc1O)SCc1ccc(Cl)cc1Cl)c1ccc(Cl)cc1 [Example 115]		
4.30 to 4.60	5.00 to 6.00	COc1cc(OC)c(C=C(SCc2ccc(Cl)cc2Cl)C(=O)c2ccc(Cl)cc2)c(OC)c1 [Example 116]		
5.00 to 6.00	4.60 to 5.00	CCOc1cc(C=C(SCc2ccc(Cl)cc2Cl)C(=O)c2ccc(Cl)cc2)ccc1O [Example 117]		
4.60 to 5.00	4.60 to 5.00	O=C(C(=Cc1c[nH]c2ccccc12)SCc1ccc(Cl)cc1Cl)c1ccc(Cl)cc1 [Example 118]		
4.00 to 4.30	4.60 to 5.00	Cc1ccsc1C=C(SCc1ccc(Cl)cc1Cl)C(=O)c1ccc(Cl)cc1 [Example 119]		
< 4.00	4.00 to 4.30	CN(C)c1ccc(C=C(SCc2ccc(Cl)cc2Cl)C(=O)c2ccc(Cl)cc2)cc1 [Example 120]		
4.60 to 5.00	5.00 to 6.00	O=C(C(=Cc1ccc(OCc2ccccc2)cc1)SCc1ccc(Cl)cc1Cl)c1ccc(Cl)cc1 [Example 121]		
5.00 to 6.00	4.60 to 5.00	O=C(C(=Cc1ccc(Cl)cc1)SCc1ccc(Cl)cc1Cl)c1ccc(Cl)cc1 [Example 122]		
